In patent US5371071A, “Peptide and pseudopeptide compounds which are therapeutically active in the blood coagulation cascade” (Adir et Compagnie, priority 1992, dated 1994):

Test: Anticoagulant activity ex vivo, prothrombin time
Format: in vivo, OFA rats
Settings: i.v.
Experimental: OFA rats, fasted or otherwise, are anesthetized with pentobarbital (60 mg/kg i.p.). The carotid and the jugular are exposed and catheterized. The catheters are flushed with citrated (1/40) physiological solution. After installation of the catheters, a sample of 1.5 cm^3 of arterial blood is withdrawn into 0.109M citrate (1/9).
30 minutes later, the test product is admini- stered i.v. in a volume of 1 ml.
Arterial blood samples (1.5 ml) are then withdrawn at 1 min 30 sec, 3 min, 5 min, 15 min, 30 min and 60 min.
As each sample is withdrawn, 1.5 ml of citrated physiological solution is reinjected into the animal via the carotid.
The blood tubes are centrifuged for 15 min at 4000 rpm (preparation of plasma).
100 μl of plasma are incubated with 200 μl of neoplastin calcium. The time of onset of the coagulation phenomenon is measured.

## hirudin
  duration of in vivo activity: 30 min
